According to a melting point compilation (Tetko et al.; mined from patent text by program, amines drawn as free bases though some values may be those of a salt):

Compared with `CCOC(=O)C1=C(COCCN)NC(C)=C(C(=O)OC)C1c1cccc(C(F)(F)F)c1Cl` (centres undefined), `CCOC(=O)c1nc2scc(CNC(=O)c3ccc(C(=O)OC)cc3)c2c(=O)[nH]1` is higher in melting point: 122 °C for the first, 236 °C for the second.

`COCCOc1ccc2c(c1)C1(CO2)C(=O)N(Cc2ccccn2)c2ccccc21` (centres undefined) and `O=C(O)[C@@H](Cc1ccccn1)Nc1cc(-c2ccc(OCc3ccccc3)cc2)ncn1` cannot be ordered by melting point: 140 to 142 °C for the first, 142 °C for the second.

First: CCOC1OC(=O)CC1NC(=O)C1CCCN1C(=O)C(NC(=O)c1ccc(N)c(Cl)c1)C(C)(C)C (centres undefined)
Second: CC(C(=O)O)c1cccc(NC(=O)NCC(=O)N2[C@@H](c3ccccc3F)SC[C@H]2C(=O)OC(C)(C)C)c1 (some centres undefined)
The melting point of the first is lower: 96 to 99 °C for the first, 126 °C for the second.

First: Cc1nc[nH]c1CSCCN=C(NC#N)NCCN
Second: CCCc1c(OCCCCC(=O)O)ccc(C(C)=O)c1O
The melting point of the first is higher: 164 to 167 °C for the first, 97 to 102 °C for the second.

First: COC1=CCC(Br)(OC)C=C1C(=O)C(Br)CCC1CCCCC1 (centres undefined)
Second: Cc1cccc(NC(=O)NC2N=C(C3CCCCC3)c3cccc(C)c3N(CC(=O)N3CCCCCCC3)C2=O)c1 (centres undefined)
The melting point of the first is lower: 96 to 104 °C for the first, 154 to 155 °C for the second.

Compared with `CCOC(=O)N1CCC(Nc2ccc(Cl)cc2C(=O)c2ccccc2F)CC1`, `COC(=O)c1ccccc1NC(=O)CN1CCNCC1` is lower in melting point: 112 to 114 °C for the first, 94 to 96 °C for the second.

Compared with `BrCc1nsc2nc3ccccc3n12`, `CCN(C(=O)n1nnc2cc(C)ccc21)c1ccccc1` is lower in melting point: 242 to 244 °C for the first, 42 to 43 °C for the second.

Compared with `CN(c1cccc2cc(C3=NCC(CC(=O)N4CCC[C@H]4C(=O)O)S3)[nH]c12)S(=O)(=O)c1ccccc1C(F)(F)F` (some centres undefined), `N[C@@H](Cc1ccccc1)c1nc2c(C(F)(F)F)cccc2c(O)c1C(=O)Nc1nccs1` is higher in melting point: 132 to 135 °C for the first, 234 °C for the second.

`COC(C)(C)O[C@@H]1C(=O)N(C(=O)OC(C)(C)C)[C@@H]1c1ccccc1` (relative stereo) and `CC(C)(C)C(O)(COc1ccccc1)c1cccnc1` (centres undefined) cannot be ordered by melting point: 90 to 92 °C for the first, 89 to 90.5 °C for the second.

Compared with `CC(=O)c1ccc(-n2c(-c3sc(NC(=O)c4ccc(C)cc4)nc3-c3ccccc3)nc3ccccc3c2=O)cc1`, `N=C(N)NC(=O)Cc1c(-c2ccccc2)cccc1-c1ccc2ccccc2c1` is lower in melting point: 266 to 267 °C for the first, 36.8 to 36.9 °C for the second.

First: CN(Cc1ccc(F)cc1)C(=O)c1cnc2c3c(ccc2c1)C(=O)C(C(=O)O)C=N3 (centres undefined)
Second: COc1ccc2cc([C@H](C)C(=O)OCCN(C)C(=O)c3ccc(CO[N+](=O)[O-])cc3)ccc2c1
The melting point of the first is higher: 245 to 246 °C for the first, 108 to 115 °C for the second.

First: N#Cc1ccc([C@H]2CC[C@H](C=O)CC2)cc1
Second: N#Cc1ccc(C(=C2CCCC2)c2ncc[nH]2)cc1
The melting point of the first is lower: 57.1 °C for the first, 108 to 110 °C for the second.

First: Cn1cc(-c2cc(-c3cnc4[nH]ccc4c3)ccn2)n(-c2cccc(C#N)c2)c1=O
Second: Cc1oc(-c2ccco2)nc1COc1ccc(COc2nn(-c3ccccc3)cc2C=O)cc1
The melting point of the first is higher: 265 °C for the first, 148 to 149 °C for the second.

First: NS(=O)(=O)c1cccc(-c2cccc(-c3nc(-c4ccc(F)cc4)cc(C(F)(F)F)n3)c2)c1
Second: O=C(Nc1ccc(F)c(NC(=S)Nc2cccc(C(F)(F)F)c2)c1)c1ccc(Cl)c(Cl)c1
The melting point of the first is higher: 208 °C for the first, 172 to 174 °C for the second.

Compared with `Cc1cc(OC(F)F)nc(N)n1`, `CCOc1nc(N)nc(OC(F)(F)F)n1` is lower in melting point: 136 to 137 °C for the first, 69 to 71 °C for the second.

Compared with `CCN(CC)c1nn2ccccc2c1C(C)=O`, `CCc1nn2ccccc2c1NC(C)=O` is higher in melting point: 59.5 to 60 °C for the first, 184 to 188 °C for the second.

First: CCCCc1cccc2[nH]c(C(=O)O)cc(=O)c12
Second: O=C(O)c1ccc(Cl)cc1Nc1cccc(Br)c1
The melting point of the first is higher: 269 to 270 °C for the first, 205 to 207 °C for the second.

First: CC1OC(O)CC(NC(=O)C(F)(F)F)C1C (centres undefined)
Second: COC(=O)[C@H]1OC(O)[C@H](OC(=O)C(C)C)[C@@H](OC(=O)C(C)C)[C@@H]1OC(=O)C(C)C (some centres undefined)
The melting point of the first is higher: 132 to 134 °C for the first, 89 °C for the second.

Going from `CC(C)N(C(=O)CC(c1ccccc1)c1cc(Br)ccc1OCc1ccccc1)C(C)C` (centres undefined) to `COC(=O)c1cnc(SC)n1C(c1ccccc1)c1ccccc1`, the melting point rises from 102 °C to 118 °C.

First: O=C(O)CCc1cccc(C(O)(C(F)(F)F)C(F)(F)F)c1
Second: CNc1ccc(C(=N)NC(=O)OCc2ccccc2)c(F)c1
The melting point of the first is lower: 112 to 113 °C for the first, 128 to 130 °C for the second.

Compared with `COC(=O)C(Cl)C(C)=NNS(=O)(=O)c1ccc(C)cc1` (centres undefined), `CCc1nc2c(C)nc(C)nc2n1-c1ccc(CCOC(=O)NS(=O)(=O)c2ccc(C)cc2)cc1` is higher in melting point: 97 to 101 °C for the first, 162 °C for the second.

First: COc1ccc(-c2nnc3c4ccccc4c(Nc4ccc(-c5nn[nH]n5)cc4)nn23)cc1
Second: CCSc1nn2c(-c3ccccc3)nnc2c2ccccc12
The melting point of the first is higher: 281 to 284 °C for the first, 190 to 191 °C for the second.

First: Cc1oc(-c2ccccc2)nc1COc1ccc(CCCCc2nnn[nH]2)cc1
Second: ClCc1ccc(OCc2ccc3ccccc3n2)nc1
The melting point of the first is lower: 116 to 117 °C for the first, 118 to 119 °C for the second.

First: CN(CCCCCCNC(=O)NCCCOc1cccc(CN2CCCCC2)c1)CCN(Cc1ccc(F)cc1)c1ccccn1
Second: O=C(CCCOc1cccc(CNC(=O)c2nc3ccccc3c(=O)[nH]2)c1)Nc1nc[nH]n1
The melting point of the first is lower: 65 to 69 °C for the first, 189 to 190 °C for the second.

Compared with `CCCCCCc1cc2c(s1)-n1c(C)nnc1CN=C2c1cc(C)ccc1C`, `CCCCCCCCCCc1ccc2cc(O)c(SC)cc2c1` is lower in melting point: 81 to 84 °C for the first, 65.5 to 66 °C for the second.

Compared with `CC1C=CCCC1C1OC(=O)NC1=O` (centres undefined), `CC1NCCc2ccccc21` (centres undefined) is lower in melting point: 97 to 103 °C for the first, 60 °C for the second.

First: CC1(C)Cc2c(c(N3CCOCC3)nc3sc4c(NCCCN5CCCC5=O)ncnc4c23)CO1
Second: COc1ccc(-c2c(Cl)c(CN3C(=O)CCC3=O)nc3sc4c(c23)CCC(C(=O)N2CCOCC2)C4)cc1 (centres undefined)
The melting point of the first is higher: 216 to 217 °C for the first, 170 to 171 °C for the second.

First: Fc1cc(CC2(Cc3ccnc(F)c3)c3ccccc3-c3nccnc32)ccn1
Second: O=C(O)C(=NO)C(c1ccc(OCc2ccccn2)cc1)c1ccc(OCc2ccccn2)cc1
The melting point of the first is lower: 119 to 120 °C for the first, 154 °C for the second.

First: CS(=O)(=O)CCCn1cc(C(Cc2ccccc2Br)=NO)c2ccc(Cl)c(Cl)c21
Second: CN(C)c1c(CC(=O)O)cccc1C(=O)c1ccccc1
The melting point of the first is higher: 191 to 194 °C for the first, 144 to 146 °C for the second.

Compared with `CC(=O)Nc1nc(CCc2ccc(C(=O)NC(=N)N)cc2)c(Cc2ccc(S(C)(=O)=O)cc2)s1`, `COc1ccc(C(=O)Nc2c(C)c(C)c3oc(C)c(-c4ccc(F)cc4)c3c2C)cc1` is higher in melting point: 108 to 110 °C for the first, 225 to 227 °C for the second.

Compared with `CCCn1c(=O)c2c(nc(C=Cc3cc(OC)c(OC)cc3S(=O)(=O)N(CC)CC)n2C)n(CCC)c1=O`, `CCC1=NN=C(c2ccc(OC)c(OC)c2)c2cc(OC)c(OC)cc2C1C` (centres undefined) is lower in melting point: 227 to 228 °C for the first, 157 to 158 °C for the second.

Compared with `N#Cc1ccc2c(c1-c1c(C#N)ccc3c1OCO3)OCO2`, `Cc1c(Nc2c(C#N)cncc2-c2cc3cc(CN4CCN(C)CC4)ccc3o2)ccc2[nH]ccc12` is lower in melting point: 213 to 215 °C for the first, 162 to 165 °C for the second.

First: NC(=NCC(F)(F)F)Nc1ccnc(OCCCO)n1
Second: CN(C)Cc1ccc(NC(=O)Nc2ccc(Oc3cc(Cl)ncn3)cc2)cc1C(F)(F)F
The melting point of the first is higher: 118 to 120 °C for the first, 98 to 105 °C for the second.

Compared with `C[C@@H]1Cc2cc(N3C[C@H](CN)OC3=O)ccc2N1C(=O)OCc1ccccc1`, `CCCCCCC(=O)C=Cc1ccc(OCc2ccccc2)c(OC)c1` is lower in melting point: 120 to 122 °C for the first, 78 to 81 °C for the second.

Compared with `O=c1c2ccccc2sc2cc(OCC(O)CCl)cc(O)c12` (centres undefined), `CC(CN(C)c1ccccc1)NCC(O)c1ccc(O)c(C(N)=O)c1` (centres undefined) is lower in melting point: 151 °C for the first, 143 to 145 °C for the second.

Compared with `N#CSCC(=O)N1CCCCC1`, `COC(=O)CCc1ccc(N2CCCN(c3ccc(C#N)cc3)C2=O)cc1` is higher in melting point: 78 to 79 °C for the first, 149 to 152 °C for the second.

First: CC(C)OC(=O)C1=C(c2cccc([N+](=O)[O-])c2)N2C(=O)N(C)NC2=NC1C (centres undefined)
Second: COc1ccc(O)cc1[N+](=O)[O-]
The melting point of the first is higher: 255 to 256 °C for the first, 78 to 80 °C for the second.

Compared with `O=C1CCC(N2Cc3c(OCc4ccc(CN5CCN(C(=O)C6CCCCC6)CC5)cc4)cccc3C2=O)C(=O)N1` (centres undefined), `COC1(c2cc(F)cc(Sc3ccc(Cc4ccc(F)cc4)cc3)c2)CCOCC1` is lower in melting point: 215 to 217 °C for the first, 62 to 64 °C for the second.

First: Cc1ccc(-c2cc3ccc(C(=O)O)cc3o2)cc1
Second: COc1ccc(-c2nc(SC)sc2-c2ccc(OC)cc2)cc1
The melting point of the first is higher: 270 to 272 °C for the first, 102 to 104 °C for the second.

First: CCN(CC)C(=O)c1ccc2ccccc2c1/C=C/c1ccccc1
Second: OCCN(c1ccccc1)c1ccccc1
The melting point of the first is lower: 86 to 89 °C for the first, 109 to 110 °C for the second.

Compared with `CCCCCCCCN1C(=O)NC2(CC(C)(CC)N(CCOC(=O)c3ccccc3)C(C)(CC)C2C)C1=O` (centres undefined), `CCCCCCCCCCCCOc1ccc(C2=C(O)CSC2=O)cc1` is higher in melting point: 123 to 124 °C for the first, 173 to 175 °C for the second.

First: COCc1ccc(OC)c(Br)c1O
Second: C=CCc1cc(C(=O)OC)ccc1O
The melting point of the first is higher: 98 to 100 °C for the first, 78 to 82 °C for the second.

First: CCOC(=O)C(=NO)c1ccc(Br)cc1
Second: CCOC(=O)c1ncn2c1[C@@H]1CCCN1C(=S)c1ccccc1-2
The melting point of the first is lower: 163 to 164 °C for the first, 227 to 229 °C for the second.

First: Cc1nc(C)c(N2CCCn3c2nc2c(Cl)ccc(C(OC(F)F)C(F)(F)F)c23)c(C)n1 (centres undefined)
Second: CCOC(=O)c1c(Cn2cncn2)nc2sc3c(c2c1-c1ccc(OC)c(OC)c1)CCCN3C(=O)OCc1ccccc1
The melting point of the first is lower: 168 to 170 °C for the first, 184 to 185 °C for the second.

First: CC(C)CCC(=O)CC1c2ccccc2C(=O)N1c1ccc2ccc(Cl)nc2n1 (centres undefined)
Second: CCSc1cccc2c1C(=O)c1cccc(SCC)c1C2=O
The melting point of the first is lower: 172 °C for the first, 235 to 236 °C for the second.

Compared with `COc1ccc(N2Cc3ccccc3P2(C)=O)cc1` (centres undefined), `Clc1ccc(C2NCCc3c2[nH]c2ccccc32)cc1` (centres undefined) is higher in melting point: 148 to 150 °C for the first, 161 °C for the second.

Compared with `C=C1CCC2C3CCC4CC(O)C(OC)CC4(C)C3CCC12C` (centres undefined), `COC(=O)COc1ccc(C(=O)c2cccs2)c2c1CCCC2` is lower in melting point: 131 to 133 °C for the first, 85 °C for the second.

First: ClCCCSc1nnnn1-c1ccccc1
Second: O=C(c1cc(N2CCOCC2)ccn1)N(O)Cc1ccccc1
The melting point of the first is lower: 33 to 34 °C for the first, 105 to 110 °C for the second.

Compared with `Cc1cc(=O)oc2nn(Cc3ccncc3)c(C)c12`, `CN(C)S(=O)(=O)c1ccc(Cl)c(-c2csc(=Nc3ccc(O)cc3)n2C)c1` is higher in melting point: 177 to 180 °C for the first, 221 to 224 °C for the second.

With `CC(NC1CCc2ccccc21)C(=O)O` (centres undefined) the melting point was 248 to 250 °C.
